The record followed here is patent US12440479B2, “Prevention or treatment of chronic organ injury” (GEORG-AUGUST-UNIVERSITAET GOETTINGEN, STIFTUNG …, priority 2018, dated 2025).

Test [1] has as its system ARNT. The test can be described thus: ARNT mRNA expression levels in organs of treated mice (qRT-PCR). The following applies: FK506 0.2 mg/kg or GPI-1046 30 mg/kg orally per day; kidney, heart, brain, spinal cord, skin, liver, lung and intestine. The format is in vivo. The protocol: Solutions were changed once a day and mice were sacrificed at indicated time points.
Mice were injected subcutaneously with 10 mg/kg body weight per day GPI-1046 (Santa Cruz Biotechnology, Dallas, USA) in DMSO once daily starting one day prior of surgery, control mice received equivalent volume of vehicle DMSO. For oral administration, GPI-1046 stock solution was diluted in glucose-water (5%) and orally applied on the basis of an average drinking volume of 3 mL and a body weight of 20 g per mouse. Three days after challenging with UUO, mice were treated orally with either vehicle buffer glucose (5%) or 30 mg/kg body weight per day GPI-1046, respectively.
For SYBR-based real-time PCR, cDNA synthesis was performed by using DNase I digestion (Invitrogen, Carlsbad, USA) and SuperScript II Reverse Transcriptase (Invitrogen, Carlsbad, USA) according to the manufacturer's protocol. 1 μL of reverse-transcribed cDNA was added to the reaction mixture containing the primer pair (200 nmol/L each) and diluted 2× Fast SYBR Green Master Mix (Applied Biosystems, Carlsbad, USA) in a final volume of 20 μL for each PCR reaction. The real-time PCR reactions were performed in a 96-well reaction plate using the StepOne Plus Real-Time System (Applied Biosystems, Carlsbad, USA) and were done in triplicates. […] The relative expression levels were calculated using the equation 2^−ddCt.
(In general: Real-time PCR tracks product formation cycle by cycle.)

The subject of test [2] is functional parenchyma. The test can be described thus: Streptozotocin (STZ) model of diabetic nephropathy. The format is in vivo. The following applies: STZ mice; FK506 0.2 mg/kg or GPI-1046 10 mg/kg subcutaneously per day. The protocol: Based on these observations, we next hypothesized that FK506 and small molecule FKBP12 inhibitor GPI-1046 could equally protect functional parenchyma in an experimental models of diabetic nephropathy (168). Diabetes was induced in 8 to 12 weeks old C57BL/6N mice by a single intraperitoneal injection of streptozotocin (STZ) at 200 mg/kg in 10 mmol/L citrate buffer (pH 4.5), citrate buffer alone was injected as control (168). FK506 (0.2 mg/kg body weight) and GPI-146 (10 mg/kg body weight) in DMSO once daily were applied by subcutaneous injections starting one day prior of STZ administration. At day 3 after STZ injection, diabetes was confirmed by urine dipstick. Mice were sacrificed 8 weeks after STZ injection for further analyses.

The test system of test [3] is UUO-challenged kidneys. The test can be described thus: Unilateral ureteral obstruction (UUO): tubular injury and interstitial fibrosis (histology, immunostaining). The format is in vivo, mice.
In test [4] the test system is intrarenal ARNT/ALK3 signaling. The test can be described thus: UUO kidneys: ARNT/ALK3 expression and pSmad1/5/8 (qRT-PCR, immunoblotting, immunostaining). The format is in vivo, mice. To be noted: for canonical BMP signaling responses / intrarenal ARNT and ALK3 transcription: FK506 0.2 mg/kg or GPI-1046 30 mg/kg orally per day starting three days after UUO; for intrarenal NFAT signaling: picomolar FK506 or GPI-1046. The method, then: Eight to twelve weeks-old C57/6, yGTcre−;Yy1fl/fl and yGTcre+;Yy1fl/fl mice were anesthetized with isoflurane inhalation (2-3%), analgesia was performed by subcutaneous injection of 0.1 mg/kg body weight per day Buprenorphine. The ureter was separated from the surrounding tissues and two ligatures were placed about 5 mm apart in upper two-thirds of the left ureter to obtain reliable obstruction. Mice were sacrificed 3, 7 or 10 days after ureteral obstruction for further analyses, as described before (53, 153-155).
Paraffin-embedded specimens were deparaffinized in xylene and rehydrated in ethanol containing distilled water. Tissue sections were stained using polyclonal antibodies against ALK3 (sc-20736, Santa Cruz Biotechnology, Dallas, USA) and ARNT (3718S, Cell Signaling, Danvers, USA), peroxidase labeling was performed using Vectastain Universal Elite ABC Kit (Vector Laboratories, Burlingame, USA) according to the manufacturer's protocol. AEC Substrate-Chromogen (Dako, Glostrup, Denmark) was applied for peroxidase visualization according to the manufacturer's protocol. Nuclear counterstain was performed by using Mayer's Hematoxylin Solution (Sigma, St. Louis, USA).
For immunofluorescent staining, primary antibodies against ARNT (5537S, Cell Signaling, Danvers, USA), Hif1α (H6535, Sigma, St. Louis, USA), Hif2α (ab20654, Abcam Biochemicals, Cambridge, UK), phosphorylated Smad1/5/8 (pSmad1/5/8, sc-12353, Santa Cruz Biotechnology, Dallas, USA), CD45 (550539, BD Biosciences, Franklin Lakes, USA), Collagen-1 (ab34710, Abcam Biochemicals, Cambridge, UK), α-smooth muscle actin (aSMA, A5228, Sigma, St. Louis, USA), FKBP12 (ab2918, Abcam Biochemicals, Cambridge, UK) and YY1 (ab12132, Abcam Biochemicals, Cambridge, UK) were used, secondary antibodies were labeled with Alexa Fluor 488 or 568 (Life Technologies, Carlsbad, USA). Renal basement membranes were stained with antibodies against Collagen-4 (1340-30, SouthernBiotech, Birmingham, USA), cardiac cell membranes with antibodies against WGA (W11261, Life Technologies, Carlsbad, USA). Nuclear staining was performed using 4′,6-diamidino-2-phenylindole (DAPI, Vector Laboratories, Burlingame, USA). Relative areas positive for Collagen-1, aSMA, tubular nuclei positive for ARNT and pSmad1/5/8 were quantified in 10 high power fields per section at 400× magnification.
For SYBR-based real-time PCR, cDNA synthesis was performed by using DNase I digestion (Invitrogen, Carlsbad, USA) and SuperScript II Reverse Transcriptase (Invitrogen, Carlsbad, USA) according to the manufacturer's protocol. 1 μL of reverse-transcribed cDNA was added to the reaction mixture containing the primer pair (200 nmol/L each) and diluted 2× Fast SYBR Green Master Mix (Applied Biosystems, Carlsbad, USA) in a final volume of 20 μL for each PCR reaction. The real-time PCR reactions were performed in a 96-well reaction plate using the StepOne Plus Real-Time System (Applied Biosystems, Carlsbad, USA) and were done in triplicates. An initiation step at 95° C. for 20 seconds was followed by 40 cycles at 95° C. for 3 to seconds and 60° C. for 30 seconds, with one cycle of dissociation at 95° C. for 15 seconds, 60° C. for 60 seconds, and 95° C. for 15 seconds. The intercalation of SYBR Green dye and its fluorescent signal is directly proportional to the amount of amplified DNA and was transformed into the cycle threshold (Ct). For normalization, the Ct values of the housekeeping genes Gapdh and Actb were subtracted from the Ct values of the gene of interest to generate the dCt values. The relative expression levels were calculated using the equation 2^−ddCt.
Tissue and cells were homogenized in NP40 lysis buffer (Life technologies, Carlsbad, USA) supplemented with protease inhibitor cocktail (Roche, Basel, Switzerland).

The mark [5] stands for this setting: UUO, FK506 0.2 mg/kg or GPI-1046 30 mg/kg orally per day starting three days after UUO.
Where [6] appears, read: UUO, FK506 0.02-5.0 mg/kg or CsA 10 mg/kg orally per day starting one day prior to UUO.
Setting [7] is: UUO, VMO 12.5 mg/kg intraperitoneally or FK506 0.2 mg/kg orally per day.
Setting [8] is: UUO, intrarenal ARNT induction depleted (Arnt-VMO).

Take `C=CC[C@@H]1/C=C(\C)C[C@H](C)C[C@H](OC)[C@H]2O[C@@](O)(C(=O)C(=O)N3CCCC[C@H]3C(=O)O[C@H](/C(C)=C/[C@@H]3CC[C@@H](O)[C@H](OC)C3)[C@H](C)[C@@H](O)CC1=O)[C@H](C)C[C@@H]2OC` [FK506, tacrolimus]: the “transcriptional ARNT induction in organs” value in test [1] was “transcriptional ARNT induction was present”. Moreover, the “protection of functional parenchyma from chronic injury” value in test [2] is listed as “equally effective”. Also, the “effect of FK506 on ALK3 expression, nuclear pSmad1/5/8, tubular injury or interstitial fibrosis” value in test [3] (UUO mice that had also received Fkbp12-VMO or Yy1-VMO) is on record as “no additive effects”. Moreover, the “effect of FK506 on BMP signaling, tubular injury, renal fibrogenesis, ALK3 transcription” value in test [3] (UUO, mice with YY1 depleted in TECs (yGTcre+;Yy1fl/fl), FK506 0.2 mg/kg orally per day) is on record as “no additive effects”. Besides, the “tubular injury and renal fibrogenesis” value in test [3] (setting [5]) is “attenuated”. In addition, in test [3] (setting [6]), the chronic tubular injury entry is recorded as “reduced” and the interstitial fibrosis entry is “reduced”. Further, the “tubular injury and tubulointerstitial fibrosis” value in test [3] (setting [7]) was “attenuated”. Moreover, the “protection of kidneys from tubular injury and progressive fibrotic disease” value in test [3] (setting [8]) was “failure of FK506 to protect”. Further, the “renal ARNT expression” value in test [4] (UUO mice, low-dose FK506 or CsA) is “significantly increased”. In addition, the “nuclear pSmad1/5/8” value in test [4] (UUO-challenged murine kidneys) is on record as “nuclear pSmad1/5/8 accumulation”. Further, the “expression of ALK3” value in test [4] (UUO-challenged murine kidneys, treatment starting one day prior) is on record as “specifically induced”. Further, in test [4] (UUO), the “canonical BMP signaling responses” value is “enhanced”; the “intrarenal ARNT and ALK3 transcription” value was “equally effective”; the “intrarenal NFAT signaling” value is on record as “not affecting”. Also, the “intrarenal ARNT, ALK3 and nuclear pSmad1/5/8 immunostaining” value in test [4] (setting [7]) is given as “equally induced”. Besides, the “intrarenal ALK3-dependent BMP signaling responses” value in test [4] (setting [8]) is “failed to induce”.
On to `CCC(C)(C)C(=O)C(=O)N1CCC[C@H]1C(=O)OCCCc1cccnc1` [GPI-1046, 3-(3-pyridyl)-1-propyl-(2S)-1-(3,3-dimethyl-1,2-dioxopentyl)-2-pyrrolidinedine carboxylate], for which the “transcriptional ARNT induction in organs” value in test [1] is given as “transcriptional ARNT induction was present”. For the same compound, the “protection of functional parenchyma from chronic injury” value in test [2] is on record as “equally effective”. The “tubular injury and renal fibrogenesis” value in test [3] (UUO, 10 mg/kg subcutaneously per day starting one day prior) was “protected”. Also, the “tubular injury and renal fibrogenesis” value in test [3] (setting [5]) was “attenuated”. For the same compound, in test [4] (UUO, 10 mg/kg subcutaneously per day starting one day prior, compared to FK506), the “intrarenal ARNT and ALK3 transcription, BMP signaling responses” value was “equally induced”. In test [4] (UUO), the “canonical BMP signaling responses” value was “enhanced”; the “intrarenal ARNT and ALK3 transcription” value is “equally effective”; the “intrarenal NFAT signaling” value was “not affecting”.
